One assay concerns the target T1, Atg3 (Homo sapiens, UniProt Q9NT62).
T1 construct: GFP (alternative construct GFP-Atg3, not on the same molecule as GST); expressed in transfected cells; host or cells: HEK293T
Description: Co-immunoprecipitation of FLIP with Atg3 in HEK293T cells. Type of assay: binding. To be noted: endogenously and exogenously expressed Atg3. The method, then:
The ability of FLIP to bind to Atg3 was evaluated by co-immunoprecipitation assay. HEK293T cells were transfected with Flag-vFLIP and/or GFP-Atg3 or Flag-vFLIP and/or GST-Atg3, and at 48 hr post-transfection, cells were harvested and lysed in an NP40 buffer supplemented with complete protease inhibitor cocktail (Roche). After pre-clearing with protein A/G agarose beads for 1 hr at 4° C., whole-cell lysates were used for immunoprecipitation with αFlag, αGFP, or GST. Generally, 1-4 μg of the antibody was added to 1 ml of the cell lysate and incubated at 4° C. for 8 to 12 hr. The immunoprecipitates were then washed extensively with a lysis buffer and eluted by boiling them with an SDS loading buffer for 5 min. Following immunoprecipitation, samples were treated to immunoblot using αAtg3 (1:500) (Novus).

In the next assay the test system is NIH3T3 cells. Briefly: GFP-LC3 autophagy with ectopic FLIP expression. Type of assay: cell-based. Particulars: Hank's solution 4 hr or 2 μM rapamycin 3 hr. Here is the method: At 12-16 hours post-transfection with GFP-LC3, NIH3T3 cells containing vector or the FLIP gene were treated with Hank's solution for 4 hr or with 2 μM rapamycin for 3 hr. Subsequently, GFP-LC3 was detected using an inverted fluorescence microscope, autophagy was quantified as means (±SD) of the combined results from three independent experiments, and autophagosomes were visualized through scanning electron microscopy. NIH3T3-Vector, NIH3T3-KSHV-vFLIP, and NIH3T3-MCV-159L cells were treated with Hank's solution for 4 hr, followed by immunoblotting with anti-LC3 and anti-βTubulin. At 12-16 hr post-transfection with GFP-LC3, TREX-BCBL-Vector and TREX-BCBL-vFLIP cells were treated with doxycycline for 24 hr, followed by incubation with 2 μM rapamycin for an additional 12 hr. The detection of GFP-LC3 and autophagy levels was performed as described above, vFLIP expression was detected by IB with anti-Flag, and autophagosomes were visualized by scanning EM. TNF-induced apoptosis and NF-κB luciferase assay were performed as previously described (Matta and Chaudhary (2004) Proc. Natl. Acad. Sci. USA 101:9399-9404).
The anti-autophagic properties of vFLIP, as well as the related cFLIP, HSV, and MCV, were evaluated by ectopic expression of HVS, vFLIP, MCV 159L, and the short form of cFLIP (cFLIPs) in NIHI3T3 cells. DNA fragments corresponding to the coding sequences of the KSHV-vFLIP, human cFLIPs, MCV-MC159, and HVS-vFLIP genes were amplified via polymerase chain reaction and subcloned into pcDNA5/FRT/TO between the AflII and BamHI restriction sites or pEF-IRES-puro between the AflII and XbaI sites. Starvation studies were carried out by transfecting cells containing vector or the FLIP gene with GFP-LC3, then 12-16 h post-transfection, treating the cells with Hank's solution for 4 hr or with 2 μM rapamycin for 3 hr. Autophagy was assessed by GFP-LC3 redistribution using an inverted fluorescence microscope, quantifying autophagy as means (±SD) of the combined results from three independent experiments. Autophagosomes were visualized through scanning electron microscopy. […]

The target in the next assay is T2, Atg3-LC3 interaction (Homo sapiens, UniProt Q9NT62).
T2 construct: expressed in transfected cells; host or cells: HEK293T
T2 sequence (Q9NT62 whole entry): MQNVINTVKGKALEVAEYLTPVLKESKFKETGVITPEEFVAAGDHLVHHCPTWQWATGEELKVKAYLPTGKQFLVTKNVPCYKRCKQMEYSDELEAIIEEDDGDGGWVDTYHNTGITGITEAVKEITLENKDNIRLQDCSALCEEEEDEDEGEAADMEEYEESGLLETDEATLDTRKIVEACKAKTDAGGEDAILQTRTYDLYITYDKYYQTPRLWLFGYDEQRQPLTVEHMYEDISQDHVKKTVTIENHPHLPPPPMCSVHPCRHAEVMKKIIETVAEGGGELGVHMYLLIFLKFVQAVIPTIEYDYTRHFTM
Description: Competition of vFLIP with LC3 for Atg3 binding (GST pulldown). Particulars: increasing amount of Flag-vFLIP, HEK293T. The method, then: Due to identical Atg3 binding patterns seen in vFLIP and LC3, the ability of vFLIP to directly compete with LC3 for Atg3 binding was tested. HEK293T cells were transfected with GST-Atg3 and GFP-LC3 along with increasing amount of Flag-vFLIP. At 48 hr post-transfection, GST pulldown was performed as described above, followed by immunoblotting with αGFP or αFlag.

The subject of the next assay is TREX-BCBL cells. Briefly: vFLIP expression in KSHV-infected BCBL1 cells: autophagy, growth suppression and death. The class given is cell-based. The method, then:
To investigate whether vFLIP expression suppresses autophagy in virus-infected cells, a KSHV-infected BCBL1 cell line was constructed (TREX-BCBL) in which a Flag-tagged KSHV-vFLIP gene was integrated into the chromosomal DNA under the control of a tetracycline-inducible promoter. (Nakamura et al. (2003) J. Virol. 77:4205-4220). At 12-16 hr post-transfection with GFP-LC3, TREX-BCBL-Vector and TREX-BCBL-vFLIP cells were treated with Doxycycline for 24 hr, followed by incubation with 2 μM rapamycin for an additional 12 hr. The detection of GFP-LC3 and autophagy levels was performed as described above, vFLIP expression was detected by IB with anti-Flag, and autophagosomes were visualized by scanning EM (scale bar=50 nm). Treatment of these cells with doxycycline strongly activated Flag-vFLIP expression.
The effect of vFLIP on autophagy was tested in a KSHV-infected BCBL1 cell line. TREX-BCBL-Vector and TREX-BCBL-vFLIP cells were treated with rapamycin or left untreated for 6 days in the presence of doxycycline and subjected to scanning EM, to examine the morphologies of over 100 dead cells and quantify cell death for apoptosis and autophagic death, or subjected to PI staining and cell cycle analysis.
All siRNAs were produced by Dharmacon Research. siRNAs specific for human Beclin1 (5′[…]3′) and a nonspecific scrambled control siRNA were transfected using DharmaFect reagent (Dharmacon) according to the manufacturer's instructions. At 48-72 hr post-transfection, cells were analyzed for autophagy. Trypan blue staining and a Beckman Coulter Z2 Particle Count and Size analyzer were used to determine cell death (as a percentage) at day 5.

T1 sequence (Q9NT62 whole entry): as above

Turning to “KSHV vFLIP: viral FLICE-like inhibitor protein of Kaposi's sarcoma-associated herpesvirus, expressed in cells”, in the assay with Atg3, the “interaction with Atg3 (co-immunoprecipitation)” value was “strongly interacted with endogenously and exogenously expressed Atg3, even in the presence of a 1M NaCl salt concentration”. For the same substance, the “suppression of starvation- and rapamycin-induced autophagy” value with NIH3T3 cells is “strongly suppressed starvation- and rapamycin-induced autophagy”. The “effect on Atg3-LC3 interaction” value with Atg3-LC3 interaction is recorded as “marked decrease of Atg3-LC3 interaction”. Also, in the assay with TREX-BCBL cells (TREX-BCBL-vFLIP cells), the “block of rapamycin-induced autophagy and cell death” value was “readily blocked rapamycin-induced autophagy and cell death”; the “inhibition of peptide-induced autophagy and cell death” value is listed as “minimal”. The “suppression of rapamycin-induced autophagy in TREX-BCBL cells” value with TREX-BCBL cells (doxycycline 24 hr, 2 μM rapamycin 12 hr) is given as “extensively suppressed rapamycin-induced autophagy”. Also, the “block of rapamycin- or zVAD-induced growth suppression and autophagic death” value in the assay on TREX-BCBL cells (ectopic expression in BCBL1 cells) was “almost completely blocked”.

The values are drawn from patent publication US20130316958A1 (University of Southern California, priority 2010, published 2013).
